Measurements published in patent publication US6008247A, “2,4-bis[(4-amidino)phenyl]furans as anti-Pneumocystis carinii agents” (The University of North Carolina at Chapel Hill, priority 1998, dated 1999).
Structures can show the parent of a compound that is named as a salt.

Columns and labels:
[1] = Toxicity in the immunosuppressed rat model of Pneumocystis carinii pneumonia; format: in vivo; details: iv
Excerpt: Data obtained with pentamidine, a compound currently used clinically for treatment of PCP, are included for comparison.
^c) Evluation of iv dosage of the furon dicatons against P. carinii i
rats as descibed in Boykin, supra.

Pneumocystis carinii = assay: In vivo evaluation on intravenous administration against P. carinii in the immunosuppressed rat model; details: saline = 100.0
[2] = system: duplex oligomer d(CGCGAATTCGCG)2 (A2 T2); assay: Thermal melting with the duplex oligomer, ranking of relative DNA binding affinities; details: duplex oligomer A2T2
Excerpt: (§1) Table 2 contains thermal melting results from evaluation of the interaction of compounds 3, 5 and 7 with the DNA duplex polymer poly(dA-dT). In order to rank the relative binding affinities for interactions with DNA, the duplex oligomer d(CGCGAATTCGCG)2 (A2 T2) was employed. […] The increase in melting temperature on complex formation with the furan dications are related to the binding affinities of these molecules with nucleic acid. This enhanced DNA affinity of the N-alkyl substituted amidines is though to the in large part due to additional non-bonded interactions between the alkyl groups and the walls of the minor groove.
^b) Increase in thermal melting of the oligomer […], see

[3] = system: DNA duplex polymer poly(dA-dT); assay: Thermal melting, interaction with the DNA duplex polymer poly(dA-dT); format: binding
Excerpt: as §1
^a) Increase in thermal melting of polyA-- polyT, see Boykin, […]

With `N=C(N)c1ccc(-c2coc(-c3ccc(C(=N)N)cc3)c2)cc1` [Compound 1, 2,4-Bis[4-{(amidino)pnehyl}]furan] the Toxicity ([1]; 10.0 umol/kg/d) was 0, the Cysts/g lung (Pneumocystis carinii; 10.0 umol/kg/d) was 0.44 % of control and the “ΔTM (oligomer), increase in thermal melting of the oligomer” value (“ΔTM (oligomer), increase” for short) [2] was 9.1. The “ΔTm (DNA), increase in thermal melting of polyA-polyT” value (shortened to “ΔTm (DNA), increase”) [3] was 19.0.
With `CC(C)NC(=N)c1ccc(-c2coc(-c3ccc(C(=N)NC(C)C)cc3)c2)cc1` [Compound 2, 2,4-Bis[4-{N-(i-propylamidino)phenyl}]furan] the Toxicity ([1]; 0.25 umol/kg/d) was 0, the Toxicity ([1]; 1.0 umol/kg/d) was 0 and the Toxicity ([1]; 5.0 umol/kg/d) was 0. The Toxicity ([1]; 10.0 umol/kg/d) was 0, the Cysts/g lung (Pneumocystis carinii; 0.25 umol/kg/d) was 38.20 % of control and the Cysts/g lung (Pneumocystis carinii; 1.0 umol/kg/d) was 0.84 % of control. The Cysts/g lung (Pneumocystis carinii; 5.0 umol/kg/d) was 0.0003 % of control, the Cysts/g lung (Pneumocystis carinii; 10.0 umol/kg/d) was 0.03 % of control and the “ΔTM (oligomer), increase” value [2] was 10.9. For the same molecule, the “ΔTm (DNA), increase” value [3] was 17.6.
In the case of `CC(C)CNC(=N)c1ccc(-c2coc(-c3ccc(C(=N)NCC(C)C)cc3)c2)cc1` [Compound 3, 2-,4-Bis[4-{-(i-butylamidino)phenyl}]furan], the “ΔTM (oligomer), increase” value [2] is reported as 9.3 and the “ΔTm (DNA), increase” value [3] is reported as 20.4.
With `N=C(NC1CCCC1)c1ccc(-c2coc(-c3ccc(C(=N)NC4CCCC4)cc3)c2)cc1` [Compound 4, 2,4-Bis[4-{N-(cyelopentylamidino)phenyl}]furan] the Toxicity ([1]; 10.0 umol/kg/d) was 0, the Cysts/g lung (Pneumocystis carinii; 1.0 umol/kg/d) was 3.21 % of control and the Cysts/g lung (Pneumocystis carinii; 10.0 umol/kg/d) was 0.06 % of control. The “ΔTM (oligomer), increase” value [2] was 13.6 and the “ΔTm (DNA), increase” value [3] was 20.4.
In the case of `c1cc(-c2coc(-c3ccc(C4=NCCN4)cc3)c2)ccc1C1=NCCN1` [Compound 5, 2,4-Bis[4,5-dihydro-1H-imidazol-2-yl)phenyl]furan Dihydrochloride], the “ΔTM (oligomer), increase” value [2] is reported as 7.2 and the “ΔTm (DNA), increase” value [3] is reported as 16.8.
In the case of `N=C(N)c1ccc(OCCCCCOc2ccc(C(=N)N)cc2)cc1` [pentamidine, reference compound], the Cysts/g lung (Pneumocystis carinii; 22.0 umol/kg/d) is reported as 1.46 % of control.
